Experimental findings from US5075299A, “Cephalosporin compounds and antibacterial agents” (Meiji Seika Kaisha, Ltd., priority 1988, dated 1991) are described below.

Series [1] deals with Staphylococcus aureus 606 E-25. In words: antibacterial activity, agar dilution method. Type of series: cell-based. For orientation: Agar dilution tests growth on a series of plates holding different concentrations.
For series [2], the system named is Pseudomonas aeruginosa MB3833. In words: antibacterial activity, agar dilution method. Format: cell-based.
Series [3] concerns Escherichia coli W3630 RGN238. In words: antibacterial activity, agar dilution method. Format: cell-based. The following applies: W3630RGN238, read-out: Antibacterial Activity MIC.
Series [4] relates to Proteus rettgeli GN624. Put plainly: antibacterial activity, agar dilution method. Format: cell-based. The following applies: read-out: Antibacterial Activity MIC.
Series [5] concerns Klebsiella pneumoniae GN118. Put plainly: antibacterial activity, agar dilution method. Type of series: cell-based.
In series [6] the test system is Escherichia coli GN206. In words: antibacterial activity, agar dilution method. Format: cell-based.
The subject of series [7] is Pseudomonas aeruginosa IAM-1007. In words: antibacterial activity, agar dilution method. Type of series: cell-based.
In series [8] the test system is Citrobacter froindii GN346. In words: antibacterial activity, agar dilution method. Type of series: cell-based.
Series [9] has as its system Serratia marcescens GN629. In words: antibacterial activity, agar dilution method. Type of series: cell-based.
The subject of series [10] is mice. Put plainly: acute toxicity using mice. Format: in vivo. The following applies: dose of 2 g/kg by intravenous injection. The text has this: Acute toxicity of the compound of Example 2 was examined using mice.
The mark [11] stands for this setting: Klebsiella pneumoniae, GN118, read-out: Antibacterial Activity MIC.
Where [12] appears, read: 606E25, Staphylococcus aureus 606 E-25, agar dilution method, read-out: Antibacterial Activity MIC.
The mark [13] stands for this setting: Pseudomonas aeruginosa MB3833, agar dilution method, read-out: Antibacterial Activity MIC.
[14] abbreviates: Proteus rettgeli GN624, agar dilution method.
[15] abbreviates: Klebsiella pneumoniae GN118, agar dilution method, read-out: Antibacterial Activity MIC.
Setting [16] is: Escherichia coli GN206, agar dilution method, read-out: Antibacterial Activity MIC.
The mark [17] stands for this setting: IAM1007, Pseudomonas aeruginosa IAM-1007, agar dilution method, read-out: Antibacterial Activity MIC.
Where [18] appears, read: Citrobacter froindii GN346, agar dilution method, read-out: Antibacterial Activity MIC.
Setting [19] is: Serratia marcescens GN629, agar dilution method, read-out: Antibacterial Activity MIC.

In brackets after ≈: the same amount, converted by molar mass. Where two headings read alike, the source gives them in different places. Where only a bound is given, the exact number is not on record here.

The MIC is the lowest concentration that inhibits growth of the organism. `CC(C)(O/N=C(\C(=O)N[C@@H]1C(=O)N2C(C(=O)[O-])=C(C[n+]3ccccc3)CS[C@H]12)c1csc(N)n1)C(=O)O` [CAZ, reference compound]: the MIC came to 12.5 µg/mL (≈ 22.9 µM) in [1] (Staphylococcus aureus, 606E25, read-out: Antibacterial Activity MIC); 0.78 µg/mL (≈ 1.43 µM) in series [2] (Pseudomonas aeruginosa, MB3833, read-out: Antibacterial Activity MIC); 0.39 µg/mL (≈ 0.714 µM) in series [3]; 1.56 µg/mL (≈ 2.85 µM) in series [4]; 0.78 µg/mL (≈ 1.43 µM) in series [5] (setting [11]); 1.56 µg/mL (≈ 2.85 µM) in [6] (Escherichia coli, GN206, read-out: Antibacterial Activity MIC). In addition, the MIC in [7] (Pseudomonas aeruginosa, IAM1007, read-out: Antibacterial Activity MIC) came to 1.56 µg/mL (≈ 2.85 µM); in series [8] (Citrobacter, GN346, read-out: Antibacterial Activity MIC), 50 µg/mL (≈ 91.5 µM); in series [9] (Serratia marcescens, GN629, read-out: Antibacterial Activity MIC), 0.39 µg/mL (≈ 0.714 µM).
Consider `CO/N=C(\C(=O)N[C@@H]1C(=O)N2C(C(=O)O)=C(COC(C)=O)CS[C@H]12)c1csc(N)n1` [CTX, reference compound], for which the minimum inhibitory concentration (MIC) in series [1] (setting [12]) was 1.56 µg/mL (≈ 3.43 µM); in series [2] (setting [13]), 12.5 µg/mL (≈ 27.4 µM); in series [3], 0.2 µg/mL (≈ 0.439 µM); in series [4] (setting [14]), 1.56 µg/mL (≈ 3.43 µM); in series [5] (setting [15]), 0.05 µg/mL (≈ 0.11 µM); in series [6] (setting [16]) it was 1.56 µg/mL (≈ 3.43 µM). For the same compound, the MIC is 12.5 µg/mL (≈ 27.4 µM) in series [7] (setting [17]), 12.5 µg/mL (≈ 27.4 µM) in series [8] (setting [18]) and 0.39 µg/mL (≈ 0.856 µM) in [9] (setting [19]).
Take `Cc1c(O)c(=O)cc(CO/N=C(\C(=O)NC2C(=O)N3C(C(=O)O)=C(CSc4cnns4)CSC23)c2csc(N)n2)n1O` (stereo not shown) [Example 2, 7-((Z)-2-(2-Aminothiazol-4-yl)-2-(6-methyl-1,5-dihydroxy-4-pyridon-2-ylmethoxyimino)acetamido)-3-(1,2,3-thiadiazol-5-yl-thiomethyl)-3-cephem-4-carboxylic acid]: the MIC in [1] (setting [12]) was 12.5 µg/mL (≈ 19.2 µM); in [2] (setting [13]) it was less than 0.025 µg/mL; in [3] it was less than 0.025 µg/mL; in series [4] (setting [14]) it was 0.1 µg/mL (≈ 0.153 µM); in [5] (setting [15]), less than 0.025 µg/mL; in series [6] (setting [16]) it was 0.39 µg/mL (≈ 0.598 µM). Also, the MIC in [7] (setting [17]) is less than 0.025 µg/mL; in series [8] (setting [18]), 6.25 µg/mL (≈ 9.58 µM); in [9] (setting [19]), 0.05 µg/mL (≈ 0.0766 µM). The “Acute toxicity (death)” value in series [10] is reported as “no death was noted”.
As to `Cc1c(O)c(=O)cc(CO/N=C(\C(=O)NC2C(=O)N3C(C(=O)O)=C(CSc4nnnn4C)CSC23)c2csc(N)n2)n1O` (stereo not shown) [Example 4, 7-((Z)-2-(2-Aminothiazol-4-yl)-2-(6-methyl-1,5-dihydroxy-4-pyridon-2-ylmethoxyimino)acetamido)-3-(1-methyl-1H-tetrazol-5-ylthiomethyl)-3-cephem-4-carboxylic acid], the MIC in series [1] (setting [12]) is 25 µg/mL (≈ 38.4 µM); in series [2] (setting [13]) it was less than 0.025 µg/mL; in series [3], less than 0.025 µg/mL; in [4] (setting [14]), 0.05 µg/mL (≈ 0.0768 µM); in series [5] (setting [15]) it was less than 0.025 µg/mL; in series [6] (setting [16]) it was 0.1 µg/mL (≈ 0.154 µM). The MIC is less than 0.025 µg/mL in series [7] (setting [17]), 6.25 µg/mL (≈ 9.61 µM) in series [8] (setting [18]) and 0.05 µg/mL (≈ 0.0768 µM) in [9] (setting [19]).
Consider `Cc1cc(=O)c(O)c(CO/N=C(\C(=O)NC2C(=O)N3C(C(=O)O)=C(CSc4cnns4)CSC23)c2csc(N)n2)n1O` (stereo not shown) [Example 6], for which the MIC in series [1] (setting [12]) is 1.56 µg/mL (≈ 2.39 µM); in series [2] (setting [13]), 0.39 µg/mL (≈ 0.598 µM); in [3], 0.05 µg/mL (≈ 0.0766 µM); in series [4] (setting [14]), 0.1 µg/mL (≈ 0.153 µM); in series [5] (setting [11]) it was less than 0.025 µg/mL; in series [6] (setting [16]), 0.78 µg/mL (≈ 1.2 µM). Further, the minimal inhibitory concentration (MIC) in series [7] (setting [17]) was found to be 0.39 µg/mL (≈ 0.598 µM); in series [8] (setting [18]), 6.25 µg/mL (≈ 9.58 µM); in [9] (setting [19]), 0.2 µg/mL (≈ 0.306 µM).
